Biological target: T1, recombinant human β-Amyloid Peptide (1-42) (Homo sapiens, UniProt P05067)
T1 construct: recombinant human β-Amyloid Peptide (1-42) from BioLegend; purchased BioLegend 843801
Test: Binding assay: mass spectrometry (Q-TOF) of compounds binding to Aβ1-42
Conditions: 22 pmol/μL β-Amyloid Peptide (1-42), 1100 pmol/μL test compound; direct infusion Q-TOF MS at room temperature
From the text: The activity of the compounds utilized in the methods described herein can be assayed by measuring the binding of those compounds to β-amyloid. Data acquisition can be performed using a Waters Synapt G2-S quadrupole time of flight mass spectrometer (Q-TOF MS) with traveling wave ion mobility (Waters Corp. 34 Maple Street Milford, MA 01757). The data can be acquired using the systems sensitivity mode to allow for the detection of the less abundant oligomers. Samples can be infused at room temperature due to lower solubility of the peptide at body temperature ([…]).
One mg of compound can be reconstituted in 1 mL of Fisher Optima LC/MS grade water (cat: W6-1) and vortexed vigorously for 2 minutes until completely dissolved. The sample can be then diluted to create a 220 pmol/μL, 2200 pmol/μL, and 22,000 pmol/μL solutions to perform binding experiments to Aβ42 with 10-, 100-, and 1000-fold molar excess of tested compound.
One mg of recombinant human β-Amyloid Peptide (1-42) from BioLegend can be reconstituted in 200 μL of Fisher Optima LC/MS grade water and vortexed vigorously to solubilize the peptide creating a 5 mg/mL solution. Samples can be then diluted to a final concentration of 44 pmol/μL prior to mixing (1:1) with test compound solution. Final concentrations were 22 pmol/μL for human β-Amyloid Peptide (1-42) and 1100 pmol/μL for test compounds.
The data acquisition was performed using a Waters time of flight mass spectrometer (Q-TOF Micro). The data was acquired using the scanning mode to allow for the detection of the peptide. Samples were infused at room temperature. The mass spectrometer conditions were maintained throughout the study to ensure consistency of the data. The Waters Q-TOF conditions were as follows:
Samples were directly infused into the mass spectrometer at a flow rate of 20 μL/min using in-build Syringe Pump and Hamilton 1 mL Syringe and the acquisition time was kept 2 minutes.

T1 sequence (P05067 672-713 limits assumed): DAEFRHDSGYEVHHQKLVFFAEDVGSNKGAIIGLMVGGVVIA

Row | SMILES | Number of Molecules Bound to Aβ1-42 (# of Molecules Bound to Aβ)
1 | O=S(=O)(O)c1nnc[nH]1 [Compound 117] | 3
2 | Cn1cnnc1S(=O)(=O)O [Compound 119] | 0
3 | C[n+]1cccc(S(=O)(=O)[O-])c1 [Compound 120] | 8
4 | Nc1ncc(S(=O)(=O)O)s1 [Compound 124] | 3
5 | Nc1ncnc2[nH]c(S(=O)(=O)O)nc12 [Compound 134] | 2
6 | Nc1ccc2cc(S(=O)(=O)O)ccc2c1 [Compound 135] | 0
7 | CCCn1c(S(=O)(=O)O)nc2ccccc21 [Compound 145] | 0
8 | Nc1ccc2cc(S(=O)(=O)O)ccc2c1.O [Compound 146] | 0
9 | Cc1cc(C)[n+]2cc(S(=O)(=O)[O-])sc2n1 [Compound 148] | 5
10 | COC(=O)c1cc(OC)c(S(=O)(=O)O)s1 [Compound 151] | 0
11 | CC[n+]1ccc(-c2cccc(S(=O)(=O)[O-])c2)o1 [Compound 153] | 5
12 | CN(C)C(=O)[n+]1ccc(CCS(=O)(=O)[O-])cc1 [Compound 158] | 0
13 | Nc1ccc(Nc2ccc(N)cc2S(=O)(=O)O)cc1 [Compound 160] | 1
14 | Cc1ccc2nc(-c3ccc(N)cc3)sc2c1S(=O)(=O)O [Compound 164] | 0
15 | Cc1oc2ccc(-c3ccccc3)cc2[n+]1CCCS(=O)(=O)[O-] [Compound 165] | 1
16 | Nc1ccc(-c2ccc(N)cc2S(=O)(=O)O)c(S(=O)(=O)O)c1 [Compound 166] | 2
17 | Nc1cc(S(=O)(=O)[O-])c2cccc(S(=O)(=O)[O-])c2c1.[Na+].[Na+] [Compound 167] | 0
18 | NC1=NN(c2ccc(Oc3ccccc3)c(S(=O)(=O)O)c2)C(=O)C1 [Compound 168] | 0
19 | Nc1ccncc1S(=O)(=O)O [Compound 171] | 7

Now from value to compound:

Row | Number of Molecules Bound to Aβ1-42 (# of Molecules Bound to Aβ) | SMILES
20 | 1 | Cn1cc(S(=O)(=O)O)cn1 [Compound 118]
21 | 0 | Nc1cccc(S(=O)(=O)O)c1 [Compound 121]
22 | 0 | Nc1ccc(S(=O)(=O)O)cc1 [Compound 122]
23 | 0 | NCc1ccc(S(=O)(=O)O)cc1 [Compound 125]
24 | 1 | Nc1ccc(N)c(S(=O)(=O)O)c1 [Compound 126]
25 | 0 | Nc1ccc(S(=O)(=O)O)c(N)c1 [Compound 127]
26 | 0 | Nc1cc(S(=O)(=O)O)ccc1O [Compound 128]
27 | 0 | O=S(=O)(O)c1ccc2[nH]cnc2c1 [Compound 130]
28 | 0 | O=S(=O)(O)c1ccc2c(c1)NCC2 [Compound 131]
29 | 0 | Cn1c(S(=O)(=O)O)nc2ccccc21 [Compound 133]
30 | 0 | Nc1cccc2ccc(S(=O)(=O)O)cc12 [Compound 136]
31 | 0 | Nc1ccc(S(=O)(=O)O)c2ccccc12 [Compound 137]
32 | 0 | Nc1cccc2c(S(=O)(=O)O)cccc12 [Compound 138]
33 | 0 | Nc1cccc2cc(S(=O)(=O)O)ccc12 [Compound 139]
34 | 0 | Nc1ccc2c(S(=O)(=O)O)cccc2c1 [Compound 140]
35 | 0 | O=C1Nc2ccc(S(=O)(=O)O)cc2CO1 [Compound 141]
36 | 2 | Nc1nc2ccc(S(=O)(=O)O)cc2s1 [Compound 142]
37 | 0 | Nc1cc(S(=O)(=O)O)cc(C(=O)O)c1O [Compound 143]
38 | 0 | Nc1ccc2c(S(=O)(=O)O)cccc2c1N [Compound 144]
39 | 0 | Nc1ccc2ccc(S(=O)(=O)[O-])cc2c1.[Na+] [Compound 149]
40 | 0 | O=S(=O)(O)c1ccc(Nc2ccccc2)cc1 [Compound 150]
41 | 1 | Cc1cc(C)n(-c2ccc(S(=O)(=O)O)cc2)n1 [Compound 152]
42 | 1 | Cc1cc(=O)n(-c2cccc(S(=O)(=O)O)c2)[nH]1 [Compound 154]
43 | 0 | O=C(O)c1cc(=O)n(-c2ccc(S(=O)(=O)O)cc2)[nH]1 [Compound 161]
44 | 0 | CCOC(=O)c1cnn(-c2ccc(S(=O)(=O)O)cc2)c1N [Compound 163]
45 | 6 | Nc1ccc(S(=O)(=O)O)cn1 [Compound 170]
46 | 0 | Nc1nc2cc(S(=O)(=O)O)cc(N)c2o1 [Compound 172]

Source: patent US12036208B2, “Methods for treating neurodegenerative disorders” (Alzheon, Inc., priority 2017, dated 2024)
